According to the supplement of paper PMC10627819:

How the values were obtained:
S. pneumoniae D39V [1] = assay: Bliss interaction score (quartile over a dose matrix) (fitness difference); higher = more antagonism (negative = synergy)
Method in brief: (§1)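 Fitness here means normalised growth, inferred for single drugs from the combination data. Growth was OD595 at entry into stationary phase, divided by the plate's robust no-drug mean and capped at 1. The Bliss score is observed minus expected fitness, with the expectation being the product, and its quartiles span technical, biological and donor/recipient replicates.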

S. aureus DSM 20231 [2] = assay: as above
Method in brief: as §1

B. subtilis 168 [3] = assay: as above
Method in brief: as §1

S. aureus Newman [4] = assay: as above
Method in brief: as §1

S. aureus DSM 20231 [5] = assay: fitness (endpoint OD595 vs no drug) (fraction); higher = more growth
Method in brief: (§2)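 At 37 °C, bacteria in TSB, LB Lennox or CY were grown in 384-well plates from a starting OD595 of 0.01. OD595 was measured every 30 min for 14 h, with the first reading used as background. Fitness is the optical density at the switch to stationary phase as a fraction of the robust mean of no-drug control wells, capped at 1.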

B. subtilis 168 [6] = assay: as above
Method in brief: as §2

S. pneumoniae D39V [7] = assay: as above
Method in brief: as §2

S. aureus Newman [8] = assay: as above
Method in brief: as §2
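Throughout, for Bliss interaction score (quartile over a dose matrix): first quartile when negative (synergy) and third quartile when positive (antagonism).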
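Throughout, for fitness (endpoint OD595 vs no drug): OD595 on entry to stationary phase over no-drug wells; at most 1.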

COc1ccc(C[C@H](N)C(=O)N[C@H]2[C@@H](O)[C@H](n3cnc4c(N(C)C)ncnc43)O[C@@H]2CO)cc1 [Puromycin] + COc1cc(Cc2cnc(N)nc2N)cc(OC)c1OC [Trimethoprim]
Conditions | Bliss interaction score
B. subtilis 168 [3] | 0.0908
S. aureus DSM 20231 [2] | 0.113
S. aureus Newman [4] | 0.0927
S. pneumoniae D39V [1] | -0.203

fitness, one replicate
Conditions | first compound 0.39 µg/mL | first compound 0.78 µg/mL | first compound 1.56 µg/mL | first compound 3.12 µg/mL | first compound 6.24 µg/mL
B. subtilis 168 [6], partner 0.1 µg/mL | 0.818 | 0.875 | 0.962 | – | –
B. subtilis 168 [6], partner 0.125 µg/mL | 0.756 | 0.748 | 0.77 | – | –
B. subtilis 168 [6], partner 0.2 µg/mL | 0.814 | 0.85 | 0.831 | – | –
B. subtilis 168 [6], partner 0.4 µg/mL | 0.562 | 0.581 | 0.575 | – | –
B. subtilis 168 [6], partner 1 µg/mL | 0.332 | 0.342 | 0.365 | – | –
B. subtilis 168 [6], partner 2 µg/mL | 0.326 | 0.29 | 0.235 | – | –
S. aureus DSM 20231 [5], partner 0.125 µg/mL | 0.804 | 0.921 | – | 0.908 | 0.596
S. aureus DSM 20231 [5], partner 0.25 µg/mL | – | – | – | 0.812 | 0.631
S. aureus DSM 20231 [5], partner 0.5 µg/mL | – | – | – | 0.48 | 0.613

fitness
Conditions | first compound 0.39 µg/mL | first compound 0.78 µg/mL | first compound 1.56 µg/mL
B. subtilis 168 [6], partner 0.25 µg/mL | 0.695 | 0.738 | 0.71
B. subtilis 168 [6], partner 0.5 µg/mL | 0.492 | 0.481 | 0.514
S. aureus DSM 20231 [5], partner 0.125 µg/mL | – | – | 0.876
S. aureus DSM 20231 [5], partner 0.25 µg/mL | 0.605 | 0.639 | 0.682
S. aureus DSM 20231 [5], partner 0.5 µg/mL | 0.164 | – | 0.222
S. aureus DSM 20231 [5], partner 1 µg/mL | 0.0431 | 0.0497 | 0.0562

CN(C)c1cc(NC(=O)CNC(C)(C)C)c(O)c2c1C[C@H]1C[C@H]3[C@H](N(C)C)C(O)=C(C(N)=O)C(=O)[C@@]3(O)C(O)=C1C2=O [Tigecycline] + CC1=C\[C@@H](O)CC(=O)Cc2nc(co2)C(=O)N2CCC=C2C(=O)O[C@H](C(C)C)[C@H](C)/C=C/C(=O)NC\C=C\1 [Virginiamycin M1]
Conditions | Bliss interaction score
B. subtilis 168 [3] | -0.0387
S. aureus DSM 20231 [2] | 0.109
S. aureus Newman [4] | -0.0271
S. pneumoniae D39V [1] | -0.0538

one replicate
Conditions | fitness
B. subtilis 168 [6], first compound 0.125 µg/mL, partner 0.0625 µg/mL | ≥ 1
B. subtilis 168 [6], first compound 0.125 µg/mL, partner 0.125 µg/mL | ≥ 1
B. subtilis 168 [6], first compound 0.125 µg/mL, partner 0.25 µg/mL | ≥ 1
B. subtilis 168 [6], first compound 0.25 µg/mL, partner 0.0625 µg/mL | 0.908
B. subtilis 168 [6], first compound 0.25 µg/mL, partner 0.125 µg/mL | 0.908
B. subtilis 168 [6], first compound 0.25 µg/mL, partner 0.25 µg/mL | 0.98
B. subtilis 168 [6], first compound 0.5 µg/mL, partner 0.0625 µg/mL | 0.959
B. subtilis 168 [6], first compound 0.5 µg/mL, partner 0.125 µg/mL | 0.903
B. subtilis 168 [6], first compound 0.5 µg/mL, partner 0.25 µg/mL | 0.925
S. aureus Newman [8], first compound 0.039 µg/mL, partner 0.5 µg/mL | 0.817
S. aureus Newman [8], first compound 0.039 µg/mL, partner 1 µg/mL | 0.983
S. aureus Newman [8], first compound 0.039 µg/mL, partner 2 µg/mL | 0.768
S. aureus Newman [8], first compound 0.078 µg/mL, partner 0.5 µg/mL | 0.817
S. aureus Newman [8], first compound 0.078 µg/mL, partner 1 µg/mL | 0.877
S. aureus Newman [8], first compound 0.078 µg/mL, partner 2 µg/mL | 0.742
S. aureus Newman [8], first compound 0.156 µg/mL, partner 0.5 µg/mL | 0.86
S. aureus Newman [8], first compound 0.156 µg/mL, partner 1 µg/mL | 0.872
S. aureus Newman [8], first compound 0.156 µg/mL, partner 2 µg/mL | 0.745
S. pneumoniae D39V [7], first compound 0.65 µg/mL, partner 0.15 µg/mL | 0.982
S. pneumoniae D39V [7], first compound 0.65 µg/mL, partner 0.3 µg/mL | 0.92
S. pneumoniae D39V [7], first compound 1.3 µg/mL, partner 0.15 µg/mL | 0.963
S. pneumoniae D39V [7], first compound 1.3 µg/mL, partner 0.3 µg/mL | 0.914
S. pneumoniae D39V [7], first compound 2.6 µg/mL, partner 0.15 µg/mL | 0.928
S. pneumoniae D39V [7], first compound 2.6 µg/mL, partner 0.3 µg/mL | 0.86

fitness
Conditions | first compound 0.039 µg/mL | first compound 0.078 µg/mL | first compound 0.156 µg/mL | first compound 0.65 µg/mL | first compound 1.3 µg/mL | first compound 2.6 µg/mL
B. subtilis 168 [6], partner 0.0625 µg/mL | 0.977 | 0.987 | 0.96 | – | – | –
B. subtilis 168 [6], partner 0.125 µg/mL | 0.95 | 0.938 | 0.954 | – | – | –
B. subtilis 168 [6], partner 0.25 µg/mL | 0.997 | 0.989 | 0.953 | – | – | –
S. aureus Newman [8], partner 0.0625 µg/mL | 0.982 | ≥ 1 | ≥ 1 | – | – | –
S. aureus Newman [8], partner 0.125 µg/mL | 0.998 | 0.999 | ≥ 1 | – | – | –
S. aureus Newman [8], partner 0.25 µg/mL | 0.993 | 0.996 | ≥ 1 | – | – | –
S. pneumoniae D39V [7], partner 0.5 µg/mL | – | – | – | 0.99 | 0.961 | 0.976
S. pneumoniae D39V [7], partner 1 µg/mL | – | – | – | 0.946 | 0.951 | 0.956
S. pneumoniae D39V [7], partner 2 µg/mL | – | – | – | 0.919 | 0.904 | 0.931
